Source: article PMC10574094, “Discovery of a SHP2 Degrader with In Vivo Anti-Tumor Activity” (Molecules, 2023)

How the values were obtained:
pERK1/2 = system: pERK1/2; parameters: method as in PMID 32910655; conditions: cited from earlier work
SHP2 [1] = target: T1, SHP2 (Homo sapiens, UniProt Q06124); assay: SHP2 degradation by Western blotting in HEK293 cells; format: cell-based; parameters: endogenous in cells; host or cells: HEK293; conditions: HEK293, 16 h, 250 nM P9 in combination with 1 µM 3, 10 µM MG132, 1 µM MLN4924, 40 µM VHL-2 or 40 µM Lenalidomide
T1 sequence (Q06124 1-593): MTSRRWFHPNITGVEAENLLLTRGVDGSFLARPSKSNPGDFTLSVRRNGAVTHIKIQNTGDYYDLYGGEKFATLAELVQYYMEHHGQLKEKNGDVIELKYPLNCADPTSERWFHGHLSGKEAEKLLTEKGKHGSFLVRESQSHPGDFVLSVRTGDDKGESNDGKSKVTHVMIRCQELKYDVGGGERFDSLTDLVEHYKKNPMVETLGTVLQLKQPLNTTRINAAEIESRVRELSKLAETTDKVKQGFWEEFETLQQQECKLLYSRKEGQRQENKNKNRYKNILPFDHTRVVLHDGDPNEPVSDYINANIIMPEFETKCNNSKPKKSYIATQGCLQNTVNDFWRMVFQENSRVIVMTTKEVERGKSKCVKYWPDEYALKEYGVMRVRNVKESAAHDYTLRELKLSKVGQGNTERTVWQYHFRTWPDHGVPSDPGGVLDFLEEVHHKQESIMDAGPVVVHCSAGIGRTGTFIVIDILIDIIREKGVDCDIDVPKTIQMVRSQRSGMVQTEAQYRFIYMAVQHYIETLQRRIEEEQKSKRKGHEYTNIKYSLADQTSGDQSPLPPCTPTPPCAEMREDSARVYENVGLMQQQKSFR
Procedure: HEK293, SKBR3, U2OS, MCF7 and A549 cells were grown in DMEM supplemented with 10% FBS, penicillin (50 units/mL), and streptomycin (50 μg/mL) in a 37 °C incubator containing 5% CO2. […] For western-blot analysis, protein samples were separated by SDS-PAGE, transferred to nitrocellulose membranes, and incubated overnight at 4 °C with corresponding primary antibodies diluted in 5% BSA in phosphate-buffered saline Tween (PBST). SuperSignal™ West Pico PLUS (PI34580; Thermo Scientific) was used to visualize the antibodies in the bioanalytical imaging system (Azure Biosystems c500). […] Anti-PTP1B (ab244207) antibody was purchased from Abcam. For colony formation assay, a total of approximately 200–500 cells were seeded to each well in a 12-well plate.
Supplemental Figures, Schemes, and Tables:
Figure S1. Western blots of degradation assay for PROTAC screening. (A) Degradation assay of
compo un ds i n Table 1 at 1 μM fo r 16 hours in H EK29 3 cells. (B) Degradation assay of compounds in Table
1 at 10 μM for 16 hours in HEK293 cells. (C) Degradation assay of compounds in Table 2 at 1 μM for 16

[2] = Decomposition of CRBN-based PROTACs in DMEM media or water (LCMS); format: physicochemical; conditions: 10 μM, within 3 h, DMEM cell media or water, room temperature
Description: With the desired SHP2 ligand in hand, we synthesized an initial set of PROTAC molecules using pomalidomide or lenalidomide as a ligand of the E3 ligase Cereblon (CRBN), which is one of the most productive E3 in the development of PROTACs. […] This observation is consistent with the fact that phthalimides can be smoothly hydrolyzed in the presence of water and an organic base, as these PROTAC compounds contain a basic aliphatic amino group. Given that this free amino group in the allosteric inhibitors is essential for the binding affinity to SHP2 [28], we reasoned that pomalidomide or lenalidomide-based CRBN ligands are not suitable for the development of in vivo efficacious SHP2 degraders in this study due to stability considerations.
Scheme S1. Decomposition of CRBN-based PROTACs in the presence of water. 10 μM compound 11 or
12 was incubated in DMEM media or water for 3 hours. The fina l co ncentrations of the compounds at
the endpoint were quantified by LCMS.
Table S1. Enzymatic IC50s of first generation SHP2 PROTACs against full length SHP2
Compound ID Linker Structure Linker Length (atom) SHP2 IC50 (n M) […]

SHP2 [3] = target: T1, SHP2; parameters: endogenous in cells; host or cells: KYSE-520; conditions: cited from earlier work

SMILES: CC1(CN)CCN(c2cnc(Sc3cccc(Cl)c3Cl)c(N)n2)CC1 [compound 3, reference compound]
- IC50 (pERK1/2): 88 nM
- effect on P9-induced SHP2 degradation (SHP2 [1]): prohibited P9-induced SHP2 degradation

SMILES: NCC1(CCCCCC(=O)NCCCCCC(=O)Nc2cccc3c2C(=O)N(C2CCC(=O)NC2=O)C3=O)CCN(c2cnc(Sc3cccc(Cl)c3Cl)c(N)n2)CC1 (stereo not shown) [compound 11, 6-(1-(6-amino-5-((2,3-dichlorophenyl)thio)pyrazin-2-yl)-4-(aminomethyl)piperidin-4-yl)-N-(6-((2-(2,6-dioxopiperidin-3-yl)-1,3-dioxoisoindolin-4-yl)amino)-6-oxohexyl)hexanamide]
- compound converted into ring-opened products 13 [2]: over 90%

SMILES: CCCCC1(CN)CCN(c2cnc(Sc3ccnc(N)c3Cl)c(N)n2)CC1 [compound 2]
- IC50 (SHP2 [3]): 17 nM
